Test results as given in patent US20240150345A1, “GCN2 MODULATING COMPOUNDS AND USES THEREOF” (HiberCell, Inc., priority 2021, published 2024).

biological target: T1, GCN2 (Homo sapiens, UniProt Q9P2K8); assay: TR-FRET biochemical assay for inhibition of GCN2 activity; conditions: 2 nM GCN2, 100 nM GFP-eIF2α, 150 μM ATP, 1.5 hours at 25° C.
T1 construct: purchased Carma Biosciences (so in the source)
Protocol: Exemplary compounds from the above Examples were tested for ability to inhibit GCN2 activity using a time resolved fluorescence energy transfer (TR-FRET) assay. Assay procedures and results are described below for Examples 12-105.
GCN2 protein was obtained from Carma Biosciences (cat #05-153). The protein was diluted in assay buffer (ThermoFisher Scientific, #PV6135), 2 mM dithiothreitol (DTT), to obtain a final concentration of 2 nM and 5 μL was plated in a 384-well white assay plate. Test compounds were serially diluted to 11 concentrations by 3-fold dilution in DMS0 and 10 nL of stock was plated into 384 well white assay plate. DMS0 was used as a vehicle control. GFP-eIF2α protein was obtained from ThermoFisher (cat #PV4809). The protein was diluted in assay buffer to a 2× concentration of 200 nM along with 300 μM ATP (final concentration of 100 nM GFP-eIF2α and 150 μM ATP) in the presence of 2 mM DTT and a […] was added to each well containing the GCN2 protein and test compound. The plate was incubated in the dark at 25° C. for 1.5 hours, shaking at 1250 rpm. Tb-anti P-eIF2α (ThermoFisher cat #PV4815) was diluted to a to a concentration of 1 nM in TR-FRET Dilution Buffer (ThermoFisher cat #PV3574). 10 μL of the Tb-anti P-eIF2a solution was added to the TR-FRET reaction. The plate was incubated in the dark for 2 h at 25° C. shaking at 600 rpm. The FRET signal from the plate was read on a Envision (PerkinElmer) plate reader: • Label 1: Excitation: 340 nm, bandwidth 30 nm; Emission: 495 nm, bandwidth 10 nm. Lag time: 100 μsec. Integration time: 400 μsec. Flashes: 30. • Label 2: Excitation: 340 nm, bandwidth 30 nm; Emission: 520 nm, bandwidth 25 nm. Lag time: 100 μsec. Integration time: 400 μsec. Flashes: 30
The data were analyzed using GraphPad Prism employing a 4-parameter sigmoidal curve fit.

T1 sequence (Q9P2K8 whole entry): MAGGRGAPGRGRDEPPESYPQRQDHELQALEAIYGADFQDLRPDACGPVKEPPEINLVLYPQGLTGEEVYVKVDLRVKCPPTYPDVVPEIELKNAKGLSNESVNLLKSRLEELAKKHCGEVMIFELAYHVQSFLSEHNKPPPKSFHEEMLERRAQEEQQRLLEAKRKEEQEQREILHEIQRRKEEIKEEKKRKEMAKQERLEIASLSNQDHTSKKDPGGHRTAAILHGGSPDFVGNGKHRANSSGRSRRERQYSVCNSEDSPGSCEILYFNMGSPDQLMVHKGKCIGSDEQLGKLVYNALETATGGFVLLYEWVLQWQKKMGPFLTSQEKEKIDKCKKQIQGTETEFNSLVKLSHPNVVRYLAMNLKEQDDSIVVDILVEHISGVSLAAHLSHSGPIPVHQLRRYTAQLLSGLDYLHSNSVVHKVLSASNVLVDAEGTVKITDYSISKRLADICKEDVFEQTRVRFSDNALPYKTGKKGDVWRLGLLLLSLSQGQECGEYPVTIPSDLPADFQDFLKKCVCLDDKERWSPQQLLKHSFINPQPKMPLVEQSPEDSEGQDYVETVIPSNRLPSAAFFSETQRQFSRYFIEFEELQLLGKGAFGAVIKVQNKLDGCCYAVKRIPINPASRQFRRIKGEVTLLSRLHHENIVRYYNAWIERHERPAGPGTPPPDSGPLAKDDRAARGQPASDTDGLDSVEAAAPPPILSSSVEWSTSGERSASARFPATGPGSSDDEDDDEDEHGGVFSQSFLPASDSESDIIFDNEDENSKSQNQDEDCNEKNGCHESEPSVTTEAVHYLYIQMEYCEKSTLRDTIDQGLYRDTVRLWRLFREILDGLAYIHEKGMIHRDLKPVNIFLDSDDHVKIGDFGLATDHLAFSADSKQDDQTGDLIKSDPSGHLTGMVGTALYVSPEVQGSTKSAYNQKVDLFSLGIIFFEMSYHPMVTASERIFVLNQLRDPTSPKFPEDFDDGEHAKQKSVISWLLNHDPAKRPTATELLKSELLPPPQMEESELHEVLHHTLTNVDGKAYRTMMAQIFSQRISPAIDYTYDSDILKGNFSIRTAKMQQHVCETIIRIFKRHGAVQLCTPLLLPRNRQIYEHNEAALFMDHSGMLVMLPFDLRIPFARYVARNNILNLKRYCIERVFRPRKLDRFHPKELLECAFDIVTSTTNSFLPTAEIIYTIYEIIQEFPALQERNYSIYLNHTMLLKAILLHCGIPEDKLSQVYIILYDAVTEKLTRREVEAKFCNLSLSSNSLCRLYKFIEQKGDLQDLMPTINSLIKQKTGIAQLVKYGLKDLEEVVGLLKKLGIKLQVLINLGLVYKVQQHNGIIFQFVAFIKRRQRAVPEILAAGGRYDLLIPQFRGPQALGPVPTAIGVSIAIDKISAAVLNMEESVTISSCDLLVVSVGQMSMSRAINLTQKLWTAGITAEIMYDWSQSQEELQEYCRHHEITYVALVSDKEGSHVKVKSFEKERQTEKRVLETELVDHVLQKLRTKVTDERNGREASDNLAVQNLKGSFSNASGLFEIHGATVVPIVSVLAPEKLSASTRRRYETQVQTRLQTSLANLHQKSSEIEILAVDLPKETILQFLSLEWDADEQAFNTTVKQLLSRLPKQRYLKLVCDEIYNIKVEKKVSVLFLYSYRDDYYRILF

Row | Compound | IC50 [nM]
1 | COc1ncc(Cl)cc1S(=O)(=O)Nc1ccc(F)c(OCc2cnc3[nH]ncc3c2)c1F [Compound 4, 5-chloro-N-(2,4-difluoro-3-[1H-pyrazolo[3,4-b]pyridin-5-ylmethoxy]phenyl)-2-methoxypyridine-3-sulfonamide] | < 50
2 | CCn1ncc2ncc(CCc3c(F)ccc(NS(=O)(=O)c4cc(F)cnc4OC)c3F)cc21 [Compound 34, N-[3-(2-[1-ethylpyrazolo[4,3-b]pyridin-6-yl]ethyl)-2,4-difluorophenyl]-5-fluoro-2-methoxypyridine-3-sulfonamide] | < 50
3 | COc1ncc(F)cc1S(=O)(=O)Nc1ccc(F)c(COc2cnc3[nH]nc(C)c3c2)c1Cl [Compound 61, N-[2-chloro-4-fluoro-3-[([3-methyl-1H-pyrazolo[3,4-b]pyridin-5-yl]oxy)methyl]phenyl]-5-fluoro-2-methoxypyridine-3-sulfonamide] | < 50
4 | CNc1nccn2c(CCc3c(F)ccc(NS(=O)(=O)c4cc(Cl)cnc4OC)c3F)cnc12 [Compound 31, 5-chloro-N-(2,4-difluoro-3-(2-(8-(methylamino)imidazo[1,2-a]pyrazin-3-yl)ethyl)phenyl)-2-methoxypyridine-3-sulfonamide] | < 50
5 | Cc1ncc(F)cc1S(=O)(=O)Nc1ccc(F)c(COc2cnc3[nH]nc(C(C)C)c3c2)c1F [Compound 54, N-[2,4-difluoro-3-[([3-isopropyl-1H-pyrazolo[3,4-b]pyridin-5-yl]oxy)methyl]phenyl]-5-fluoro-2-methylpyridine-3-sulfonamide] | < 50
6 | CCc1n[nH]c2ncc(OCc3c(F)ccc(NS(=O)(=O)c4cc(F)cnc4OC)c3F)cc12 [Compound 39, N-[3-[([3-ethyl-1H-pyrazolo[3,4-b]pyridin-5-yl]oxy)methyl]-2,4-difluorophenyl]-5-fluoro-2-methoxypyridine-3-sulfonamide] | < 50
7 | COc1ncc(F)cc1S(=O)(=O)Nc1ccc(F)c(COc2cnc3[nH]ncc3c2C)c1F [Compound 20, N-[2,4-difluoro-3-[([4-methyl-1H-pyrazolo[3,4-b]pyridin-5-yl]oxy)methyl]phenyl]-5-fluoro-2-methoxypyridine-3-sulfonamide] | 50 to 500
8 | CCn1ncc2ncc(CCc3c(F)ccc(NS(=O)(=O)c4cc(Cl)cnc4OC)c3F)cc21 [Compound 33, 5-chloro-N-[3-(2-[1-ethylpyrazolo[4,3-b]pyridin-6-yl]ethyl)-2,4-difluorophenyl]-2-methoxypyridine-3-sulfonamide] | < 50
9 | COc1ncc(Cl)cc1S(=O)(=O)Nc1ccc(F)c(CCc2cc3cn[nH]c3cn2)c1F [Compound 13, 5-chloro-N-[2,4-difluoro-3-(2-[1H-pyrazolo[3,4-c]pyridin-5-yl]ethyl)phenyl]-2-methoxypyridine-3-sulfonamide] | > 1000
10 | COc1ncc(Cl)cc1S(=O)(=O)Nc1ccc(F)c(CCc2cnc3cnn(C)c3c2)c1F [Compound 18, 5-chloro-N-[2,4-difluoro-3-(2-[1-methylpyrazolo[4,3-b]pyridin-6-yl]ethyl)phenyl]-2-methoxypyridine-3-sulfonamide] | < 50
11 | COc1ncc(F)cc1S(=O)(=O)Nc1ccc(F)c(COc2cnc3[nH]nc(C)c3c2C2CCN(C)CC2)c1F [Compound 93, N-(2,4-difluoro-3-(((3-methyl-4-(1-methylpiperidin-4-yl)-1H-pyrazolo[3,4-b]pyridin-5-yl)oxy)methyl)phenyl)-5-fluoro-2-methoxypyridine-3-sulfonamide] | > 1000
12 | COc1ncc(F)cc1S(=O)(=O)Nc1ccnc(COc2cnc3[nH]nc(C)c3c2)c1F [Compound 63, 5-fluoro-N-[3-fluoro-2-[([3-methyl-1H-pyrazolo[3,4-b]pyridin-5-yl]oxy)methyl]pyridin-4-yl]-2-methoxypyridine-3-sulfonamide] | 50 to 500
13 | COc1ncc(F)cc1S(=O)(=O)Nc1ccc(F)c(COc2cnc3[nH]nc(C4CC4)c3c2)c1F [Compound 70, N-(3-(((3-cyclopropyl-1H-pyrazolo[3,4-b]pyridin-5-yl)oxy)methyl)-2,4-difluorophenyl)-5-fluoro-2-methoxypyridine-3-sulfonamide] | < 50
14 | Cc1ncc(F)cc1S(=O)(=O)Nc1ccc(Cl)c(COc2cnc3[nH]nc(C)c3c2)c1F [Compound 77, N-(4-chloro-2-fluoro-3-(((3-methyl-1H-pyrazolo[3,4-b]pyridin-5-yl)oxy)methyl)phenyl)-5-fluoro-2-methylpyridine-3-sulfonamide] | < 50
15 | COc1ncc(F)cc1S(=O)(=O)Nc1ccc(F)c(COc2cnc3[nH]nc(C)c3c2)c1F [Compound 2, N-[2,4-difluoro-3-[([3-methyl-1H-pyrazolo[3,4-b]pyridin-5-yl]oxy)methyl]phenyl]-5-fluoro-2-methoxypyridine-3-sulfonamide] | < 50
16 | C#Cc1n[nH]c2ncc(OCc3c(F)ccc(NS(=O)(=O)c4cc(F)cnc4OC)c3F)cc12 [Compound 69, N-[3-[([3-ethynyl-1H-pyrazolo[3,4-b]pyridin-5-yl]oxy)methyl]-2,4-difluorophenyl]-5-fluoro-2-methoxypyridine-3-sulfonamide] | < 50
17 | COc1ncc(Cl)cc1S(=O)(=O)Nc1ccc(F)c(COc2cnc3[nH]ncc3c2OC)c1F [Compound 24, 5-chloro-N-[2,4-difluoro-3-[([4-methoxy-1H-pyrazolo[3,4-b]pyridin-5-yl]oxy)methyl]phenyl]-2-methoxypyridine-3-sulfonamide] | < 50
18 | COc1ncc(F)cc1S(=O)(=O)Nc1ccc(F)c(COc2cnc3[nH]nc(C)c3c2-c2cccnc2)c1F [Compound 91, N-[2,4-difluoro-3-([[3-methyl-4-(pyridin-3-yl)-1H-pyrazolo[3,4-b]pyridin-5-yl]oxy]methyl)phenyl]-5-fluoro-2-methoxypyridine-3-sulfonamide] | 50 to 500
19 | COc1ncc(Cl)cc1S(=O)(=O)Nc1ccc(F)c(NCc2cnc3[nH]nc(C)c3c2)c1F [Compound 58, 5-chloro-N-[2,4-difluoro-3-[([3-methyl-1H-pyrazolo[3,4-b]pyridin-5-yl]methyl)amino]phenyl]-2-methoxypyridine-3-sulfonamide] | < 50
20 | COc1ncc(F)cc1S(=O)(=O)Nc1ccc(F)c(COc2cnc3[nH]nc(CCF)c3c2)c1F [Compound 76, N-[2,4-difluoro-3-([[3-(2-fluoroethyl)-1H-pyrazolo[3,4-b]pyridin-5-yl]oxy]methyl)phenyl]-5-fluoro-2-methoxypyridine-3-sulfonamide] | < 50
21 | COc1ncc(Cl)cc1S(=O)(=O)Nc1ccc(F)c(COc2cnn3cncc3c2)c1F [Compound 60, 5-chloro-N-(2,4-difluoro-3-((imidazo[1,5-b]pyridazin-3-yloxy)methyl)phenyl)-2-methoxypyridine-3-sulfonamide] | < 50
22 | COc1ncc(Cl)cc1S(=O)(=O)Nc1ccc(F)c(COc2cnc3[nH]ncc3c2)c1F [Compound 1, 5-chloro-N-[2,4-difluoro-3-([1H-pyrazolo[3,4-b]pyridin-5-yloxy]methyl)phenyl]-2-methoxypyridine-3-sulfonamide] | < 50
23 | COc1ncc(Cl)cc1S(=O)(=O)Nc1ccc(F)c(CCc2cnc3n2CCOC3)c1F [Compound 5, 5-chloro-N-[2,4-difluoro-3-(2-[5H,6H,8H-imidazo[2,1-c][1,4]oxazin-3-yl]ethyl)phenyl]-2-methoxypyridine-3-sulfonamide] | > 1000
